Among the test systems are SF-268; UACC-62; DU-145; PC-3; OVCAR-5; HCT-116; EKVX; U-251; A498; LOX IMVI; Malme-3M; 786-0; SK-MEL-2; MDA-MB-231; CAKI-1; SNB-19; HOP-62; MOLT-4; CCRF-CEM.
Common to all, as to test: NCI anticancer screen, dose series, 48 h

SMILES strings stand for the structures.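 Cultured in 96-well plates, cells were exposed to test compound for 48 hours across five concentrations. GI50 is the concentration that inhibits growth by half.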 Active and inactive are the calls of the source. Rule as the data show it: active = GI50 up to about 1.1 µM and inactive = higher. Some results are limits rather than exact numbers.

Turning to `CC(C)N1CCN(c2ccncc2S(=O)(=O)N2CCCCC2)CC1`, the GI50 with SF-268, in the experiment with UACC-62, in the experiment with DU-145, with PC-3, with OVCAR-5 and with HCT-116 was > 100 µM (inactive) each time. Also, the GI50 in the experiment with EKVX, in the experiment on U-251, with A498, in the experiment on LOX IMVI, in the experiment with Malme-3M and with 786-0 was > 100 µM (inactive) in each case. Moreover, the GI50 in the experiment on SK-MEL-2, with MDA-MB-231, in the experiment on CAKI-1, in the experiment on SNB-19 and in the experiment on HOP-62 was > 100 µM (inactive) throughout.
Consider `CSC1NC(c2ccc(Cl)cc2)=C(C#N)C(=O)N1C1OCC(OC(C)=O)C(OC(C)=O)C1OC(C)=O` (stereo not given), for which the GI50 in the experiment with SF-268 is > 100 µM (inactive); in the experiment with UACC-62, > 100 µM (inactive); in the experiment with DU-145 it was > 100 µM (inactive); with PC-3 it was > 100 µM (inactive); in the experiment with OVCAR-5, > 100 µM (inactive); in the experiment on MOLT-4, 8.24 µM (inactive). Besides, the GI50 is > 100 µM (inactive) in the experiment on EKVX; > 100 µM (inactive) in the experiment with U-251; 34.8 µM (inactive) with A498; > 100 µM (inactive) with LOX IMVI; > 100 µM (inactive) with Malme-3M; > 100 µM (inactive) in the experiment on 786-0. Further, the GI50 in the experiment on MDA-MB-231, in the experiment with CAKI-1, in the experiment with SNB-19 and with HOP-62 was > 100 µM (inactive) in each case.
In the case of `Nc1nc2cc(Cl)ccc2n1N`, the GI50 in the experiment on CCRF-CEM is > 100 µM (inactive); in the experiment with SF-268, > 100 µM (inactive); in the experiment with UACC-62 it was 86.9 µM (inactive); with DU-145, > 100 µM (inactive); in the experiment on PC-3 it was > 100 µM (inactive); with OVCAR-5, > 100 µM (inactive). Further, the GI50 in the experiment on MOLT-4, in the experiment on HCT-116, with EKVX, in the experiment with U-251, in the experiment with A498 and with LOX IMVI was > 100 µM (inactive) each time. In addition, the GI50 in the experiment with Malme-3M was > 100 µM (inactive); in the experiment on 786-0, > 100 µM (inactive); in the experiment on MDA-MB-231, > 100 µM (inactive); in the experiment with CAKI-1 it was > 100 µM (inactive); in the experiment with SNB-19, > 100 µM (inactive); in the experiment on HOP-62, 87.1 µM (inactive).
With `CN(C(=O)Cc1cc(Cl)c(Cl)cc1NC(=O)CCCN)[C@H]1CCCC[C@@H]1N1CCCC1`, the GI50 with SF-268 was 13.9 µM (inactive); in the experiment with UACC-62 it was 19.8 µM (inactive); with DU-145, > 100 µM (inactive); in the experiment on PC-3 it was 40.3 µM (inactive); in the experiment with OVCAR-5 it was 37.8 µM (inactive); in the experiment on MOLT-4 it was 60.8 µM (inactive). Besides, the GI50 in the experiment on HCT-116 was 29.9 µM (inactive); in the experiment on EKVX it was 45.1 µM (inactive); in the experiment with U-251 it was 19.3 µM (inactive); in the experiment with A498, 17.3 µM (inactive); with LOX IMVI, 18.6 µM (inactive); in the experiment on Malme-3M, 17.1 µM (inactive). Moreover, the GI50 is 19.5 µM (inactive) in the experiment with 786-0; 21.9 µM (inactive) in the experiment with SK-MEL-2; 28.3 µM (inactive) in the experiment with MDA-MB-231; > 100 µM (inactive) in the experiment on CAKI-1; 19.8 µM (inactive) in the experiment with SNB-19; > 100 µM (inactive) in the experiment with HOP-62.
For `CCN(CC)CCO/N=C1\CC[C@H]2[C@@H]3CC=C4C[C@@H](O)CC[C@]4(C)[C@H]3CC[C@]12C`, the GI50 in the experiment on SF-268 was 34 µM (inactive); with UACC-62 it was 16.9 µM (inactive); in the experiment on DU-145, 18.9 µM (inactive); in the experiment on PC-3, 19 µM (inactive); with OVCAR-5 it was 33 µM (inactive); in the experiment on MOLT-4, 15.7 µM (inactive). Moreover, the GI50 in the experiment on HCT-116 is 15.6 µM (inactive); in the experiment on EKVX, 35 µM (inactive); in the experiment on U-251 it was 14.4 µM (inactive); with A498, 18.5 µM (inactive); with LOX IMVI, 16.5 µM (inactive); in the experiment with Malme-3M, 16.1 µM (inactive). For the same compound, the GI50 is 17.3 µM (inactive) in the experiment on 786-0; 23.3 µM (inactive) in the experiment on SK-MEL-2; 19.7 µM (inactive) with MDA-MB-231; 14.5 µM (inactive) in the experiment on CAKI-1; 31.4 µM (inactive) in the experiment on SNB-19; 17.6 µM (inactive) in the experiment on HOP-62.
Consider `O=C1/C(=C/c2cccs2)N=C(c2ccccc2)N1C1Nc2cc3c(cc2S1)NC(N1C(=O)/C(=C/c2cccs2)N=C1c1ccccc1)S3` (stereo not given), for which the GI50 is 20.2 µM (inactive) in the experiment with SF-268; 24.7 µM (inactive) in the experiment on DU-145; 38.7 µM (inactive) in the experiment on PC-3; 27.7 µM (inactive) in the experiment with OVCAR-5; 12.6 µM (inactive) in the experiment with MOLT-4; 15 µM (inactive) in the experiment on HCT-116. The GI50 is 15.6 µM (inactive) in the experiment on EKVX; 16 µM (inactive) with U-251; 69.5 µM (inactive) in the experiment on A498; 15 µM (inactive) with LOX IMVI; 16.4 µM (inactive) in the experiment on 786-0; 18.6 µM (inactive) with SK-MEL-2. Further, the GI50 in the experiment with MDA-MB-231 was 30.2 µM (inactive); in the experiment with CAKI-1, 48.6 µM (inactive); with HOP-62 it was 30.8 µM (inactive).
For the compound `CC1=C2c3c(C)ccc4ccc(C)c(c34)C2(O)C(C)C1=O` (stereo not given), the GI50 in the experiment with SF-268 was 63.4 µM (inactive); in the experiment with UACC-62, 35.8 µM (inactive); in the experiment with DU-145 it was > 100 µM (inactive); in the experiment on PC-3 it was 32.7 µM (inactive); with OVCAR-5 it was > 100 µM (inactive); with MOLT-4 it was 25 µM (inactive). The GI50 is 43.8 µM (inactive) in the experiment on HCT-116; 70.8 µM (inactive) in the experiment with EKVX; > 100 µM (inactive) in the experiment on U-251; > 100 µM (inactive) in the experiment on A498; 45.4 µM (inactive) in the experiment on LOX IMVI; 51.2 µM (inactive) with 786-0. Further, the GI50 was > 100 µM (inactive) with SK-MEL-2; 89.1 µM (inactive) in the experiment with MDA-MB-231; 52.1 µM (inactive) in the experiment with CAKI-1; 44.3 µM (inactive) in the experiment with SNB-19; 79.1 µM (inactive) in the experiment on HOP-62.
In the case of `Nc1ccc(C(=O)Nn2c(-c3ccccc3)nc3ccccc3c2=O)cc1`, the GI50 in the experiment on CCRF-CEM, in the experiment with SF-268, in the experiment on UACC-62, in the experiment on DU-145, in the experiment on PC-3 and in the experiment with OVCAR-5 was > 100 µM (inactive) in each case. For the same compound, the GI50 in the experiment on MOLT-4 was > 100 µM (inactive); with HCT-116 it was > 100 µM (inactive); in the experiment with EKVX, > 100 µM (inactive); in the experiment on U-251, > 100 µM (inactive); in the experiment on A498, 32.3 µM (inactive); in the experiment on LOX IMVI, > 100 µM (inactive). Also, the GI50 in the experiment with Malme-3M, with 786-0, in the experiment on MDA-MB-231, in the experiment on SNB-19 and in the experiment with HOP-62 was > 100 µM (inactive) throughout.
Take `CC(C)(Br)C(Br)CCC1(C2CO2)CO1` (stereo not given): the GI50 with CCRF-CEM, in the experiment on SF-268, with DU-145, with PC-3, in the experiment with MOLT-4 and in the experiment with HCT-116 was > 5 µM (inactive) in each case. The GI50 in the experiment with EKVX, in the experiment on U-251, in the experiment with A498, with Malme-3M, in the experiment on 786-0 and in the experiment on MDA-MB-231 was > 5 µM (inactive) each time. Moreover, the GI50 in the experiment on CAKI-1, with SNB-19 and in the experiment with HOP-62 was > 5 µM (inactive) each time.
Take `C=C1CC(C#N)(C#N)[C@@H]2CC3CCCC3[C@H]12.C=C1CC(C#N)(C#N)[C@H]2C3CCCC3C[C@@H]12` (stereo not given in full): the GI50 with CCRF-CEM was 10 µM (inactive); in the experiment on SF-268, 23.3 µM (inactive); in the experiment with UACC-62, 25.9 µM (inactive); in the experiment with DU-145 it was 38.4 µM (inactive); in the experiment on PC-3 it was 30.1 µM (inactive); in the experiment on OVCAR-5, 10 µM (inactive). Besides, the GI50 in the experiment on MOLT-4 was 13.1 µM (inactive); in the experiment with HCT-116, 4.99 µM (inactive); in the experiment with EKVX it was 24.2 µM (inactive); in the experiment on U-251, 20 µM (inactive); in the experiment on A498 it was 19.7 µM (inactive); in the experiment with 786-0, 10.5 µM (inactive). In addition, the GI50 is 22 µM (inactive) with MDA-MB-231, 29.8 µM (inactive) in the experiment on SNB-19 and 10 µM (inactive) in the experiment with HOP-62.
In the case of `O=C1C=CC(=O)c2c(O)nc(CBr)nc21`, the GI50 in the experiment on SF-268 is > 100 µM (inactive); in the experiment on UACC-62, 46.5 µM (inactive); with DU-145, > 100 µM (inactive); with PC-3, 42.2 µM (inactive); with OVCAR-5, > 100 µM (inactive); in the experiment on MOLT-4, > 100 µM (inactive). Moreover, the GI50 in the experiment with HCT-116 is 56.8 µM (inactive); in the experiment with EKVX it was > 100 µM (inactive); in the experiment on U-251, 95.9 µM (inactive); in the experiment on A498, 82.6 µM (inactive); in the experiment on LOX IMVI, > 100 µM (inactive); in the experiment on Malme-3M it was > 100 µM (inactive). For the same compound, the GI50 is > 100 µM (inactive) in the experiment with 786-0; > 100 µM (inactive) in the experiment on SK-MEL-2; 61 µM (inactive) in the experiment on MDA-MB-231; > 100 µM (inactive) in the experiment on CAKI-1; > 100 µM (inactive) in the experiment on HOP-62.
With `COc1c2nc(CCl)n(C)c(=O)c2c(OC)c2c(=O)n(C)c(CCl)nc12`, the GI50 was 0.354 µM (active) in the experiment with CCRF-CEM; 1.48 µM (inactive) with SF-268; 3.4 µM (inactive) in the experiment with DU-145; 1.29 µM (inactive) with PC-3; 2.3 µM (inactive) in the experiment with OVCAR-5; 0.294 µM (active) in the experiment on MOLT-4. Further, the GI50 was 1.11 µM (active) in the experiment with HCT-116; 3.31 µM (inactive) in the experiment on EKVX; 1.64 µM (inactive) in the experiment with U-251; 2.33 µM (inactive) in the experiment with A498; 0.446 µM (active) with LOX IMVI; 1.76 µM (inactive) in the experiment on Malme-3M. In addition, the GI50 in the experiment on 786-0 is 0.904 µM (active); in the experiment with MDA-MB-231, 1.55 µM (inactive); in the experiment with CAKI-1, 1.6 µM (inactive); with SNB-19 it was 2.11 µM (inactive); in the experiment with HOP-62 it was 1.87 µM (inactive).

Values taken from ChEMBL document CHEMBL1201862, “PubChem BioAssay data set” (2004).
